In patent US20250195513A1, “DEGRADATION OF IRAK4 BY CONJUGATION OF IRAK4 INHIBITORS WITH E3 LIGASE LIGAND AND METHODS OF USE” (BeiGene, Ltd., priority 2022, published 2025):

Tests used:
IRAK4 [1] = biological target: T1, IRAK4 (Homo sapiens, UniProt Q9NWZ3); assay: IRAK4 Degradation Assay (Karpas299, HTRF/TR-FRET); format: cell-based; conditions: Karpas-299 cells, 24 h treatment; for Dmax: read-out: IRAK4 in Karpas-299 (24 h) Dmax (%); for DC50: read-out: IRAK4 in Karpas-299 (24 h) DC50
T1 construct: endogenous in cells; host or cells: Karpas299
T1 sequence (Q9NWZ3 1-460): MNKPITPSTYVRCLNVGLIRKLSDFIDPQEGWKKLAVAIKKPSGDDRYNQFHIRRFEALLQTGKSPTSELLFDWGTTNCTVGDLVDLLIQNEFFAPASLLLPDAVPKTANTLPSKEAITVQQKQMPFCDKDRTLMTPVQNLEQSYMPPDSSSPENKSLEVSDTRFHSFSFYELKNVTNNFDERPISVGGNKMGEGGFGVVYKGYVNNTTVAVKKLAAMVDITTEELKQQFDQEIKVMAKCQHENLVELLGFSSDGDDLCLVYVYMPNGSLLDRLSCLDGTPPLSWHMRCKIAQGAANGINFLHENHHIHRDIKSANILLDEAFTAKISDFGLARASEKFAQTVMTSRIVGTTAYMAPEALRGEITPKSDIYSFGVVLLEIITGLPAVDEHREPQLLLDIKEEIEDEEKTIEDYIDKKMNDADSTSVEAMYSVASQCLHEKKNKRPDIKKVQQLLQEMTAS
How it was run: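 Compound potency as DC50 (IC50) came from four-parameter fits of percent IRAK4 degradation. IRAK4 was measured by HTRF (665/620 nm) in lysates of Karpas299 cells seeded at 0.2 million per well. Cells had been treated with compound dilutions for 5 or 24 h.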

IRAK4 [2] = biological target: T1, IRAK4; assay: IRAK4 Degradation Assay with Human Serum (Karpas299, HTRF/TR-FRET); format: cell-based; conditions: Karpas-299 in human serum, 24 hrs treatment; for DC50: read-out: IRAK4 degradtion with human serum assay DC50; for Dmax: read-out: IRAK4 degradtion with human serum assay Dmax (%)
How it was run: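 Remaining IRAK4 measured by TR-FRET immunoassay on lysates of Karpas299 cells exposed 24 h to compound dilution series in human serum AB. DC50 derived from a Hill-slope fit of % degradation versus concentration.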

[3] = maximum percentage of degradation

Compound | Dmax (IRAK4 [1]; [3]) | DC50 (IRAK4 [1]) | DC50 (IRAK4 [2]) | Dmax (IRAK4 [2]) | IRAK4 in Karpas-299 (24 h) Dmax (%) (IRAK4 [1]; [3]) | IRAK4 degradtion with human serum assay Dmax (%) (IRAK4 [2])
CC(C)(O)c1cc2nn([C@H]3CC[C@H](N4CCN(C[C@H]5C[C@@H](c6cc(F)c([C@H]7CCC(=O)NC7=O)c(F)c6)C5)CC4)CC3)cc2cc1NC(=O)c1ccc2cc(C#N)cnn12 [Example 383, 3-cyano-N-(2-((1R,4r)-4-(4-(((1S,3S)-3-(4-((R)-2,6-dioxopiperidin-3-yl)-3,5-difluorophenyl)cyclobutyl)methyl)piperazin-1-yl)cyclohexyl)-6-(2-hydroxypropan-2-yl)-2H-indazol-5-yl)pyrrolo[1,2-b]pyridazine-7-carboxamide] | 94% | 1.6 nM | 5.8 nM | 93% |  | 
COC[C@@H]1CN(C2CN(c3cc(F)c([C@H]4CCC(=O)NC4=O)c(F)c3)C2)CCN1[C@H]1CC[C@H](n2cc3cc(NC(=O)c4ccc5cc(C#N)cnn45)c(C(C)(C)O)cc3n2)CC1 [Example 327, 3-cyano-N-(2-((1S,4r)-4-((S)-4-(1-(4-((R)-2,6-dioxopiperidin-3-yl)-3,5-difluorophenyl)azetidin-3-yl)-2-(methoxymethyl)piperazin-1-yl)cyclohexyl)-6-(2-hydroxypropan-2-yl)-2H-indazol-5-yl)pyrrolo[1,2-b]pyridazine-7-carboxamide] | 90% | 0.9 nM | 4.2 nM | 95% |  | 
CC(C)(O)c1cc2nn(C34CC(N5CCN(CC6CCN(c7ccc8c(c7)CN(C7CCC(=O)NC7=O)C8=O)CC6)CC5)(C3)C4)cc2cc1NC(=O)c1ccc2cc(C#N)cnn12 (centres unmarked) [Example 401, 3-cyano-N-(2-(3-(4-((1-(2-(2,6-dioxopiperidin-3-yl)-1-oxoisoindolin-5-yl)piperidin-4-yl)methyl)piperazin-1-yl)bicyclo[1.1.1]pentan-1-yl)-6-(2-hydroxypropan-2-yl)-2H-indazol-5-yl)pyrrolo[1,2-b]pyridazine-7-carboxamide] | 94% | 1.2 nM | 7.4 nM | 94% |  | 
CC(C)(O)c1cc2nn([C@H]3CC[C@H](N4CCN([C@H]5C[C@@H](c6ccc(N[C@H]7CCC(=O)NC7=O)cc6)C5)CC4)CC3)cc2cc1NC(=O)c1ccc2cc(C#N)cnn12 [Example 273, 3-cyano-N-(2-((1R,4r)-4-(4-((1R,3S)-3-(4-(((S)-2,6-dioxopiperidin-3-yl)amino)phenyl)cyclobutyl)piperazin-1-yl)cyclohexyl)-6-(2-hydroxypropan-2-yl)-2H-indazol-5-yl)pyrrolo[12-b]pyridazine-7-carboxamide] | 95% | 5 nM | 9.3 nM | 98% |  | 
Cn1c(=O)n(C2CCC(=O)NC2=O)c2cccc(CCCN3CCN(C45CC(n6cc7cc(NC(=O)c8ccc9cc(C#N)cnn89)c(C(C)(C)O)cc7n6)(C4)C5)CC3)c21 (centres unmarked) [Example 350, 3-cyano-N-(2-(3-(4-(3-(1-(2,6-dioxopiperidin-3-yl)-3-methyl-2-oxo-2,3-dihydro-1H-benzo[d]imidazol-4-yl)propyl)piperazin-1-yl)bicyclo[1.1.1]pentan-1-yl)-6-(2-hydroxypropan-2-yl)-2H-indazol-5-yl)pyrrolo[1,2-b]pyridazine-7-carboxamide] | 89% | 2.1 nM | 16 nM | 97% |  | 
CC(C)(O)c1cc2nn(C34CC(N5CCN(C(=O)C6CN(c7cc(F)c([C@H]8CCC(=O)NC8=O)c(F)c7)C6)CC5)(C3)C4)cc2cc1NC(=O)c1cccc(C(F)(F)F)n1 [Example 153, (R)—N-(2-(3-(4-(1-(4-(2,6-dioxopiperidin-3-yl)-3,5-difluorophenyl)azetidine-3-carbonyl)piperazin-1-yl)bicyclo[1.1.1]pentan-1-yl)-6-(2-hydroxypropan-2-yl)-2H-indazol-5-yl)-6-(trifluoromethyl)picolinamide] | 97% | 1.6 nM | 50 nM | 94% |  | 
CC(C)(O)c1cc2nn(C34CC(N5CCN(CCc6cc(F)c([C@H]7CCC(=O)NC7=O)c(F)c6)CC5)(C3)C4)cc2cc1NC(=O)c1ccc2cc(C#N)cnn12 [Example 159, (R)-3-cyano-N-(2-(3-(4-(4-(2,6-dioxopiperidin-3-yl)-3,5-difluorophenethyl)piperazin-1-yl)bicyclo[1.1.1]pentan-1-yl)-6-(2-hydroxypropan-2-yl)-2H-indazol-5-yl)pyrrolo[1,2-b]pyridazine-7-carboxamide] | 95% | 1.5 nM | 5.2 nM | 94% |  | 
COC[C@H]1CN([C@H]2CC[C@H](n3cc4cc(NC(=O)c5ccc6cc(C#N)cnn56)c(C(C)(C)O)cc4n3)CC2)CCN1C1CN(c2cc(F)c([C@H]3CCC(=O)NC3=O)c(F)c2)C1 [Example 318, 3-cyano-N-(2-((1R,4r)-4-((R)-4-(1-(4-((R)-2,6-dioxopiperidin-3-yl)-3,5-difluorophenyl)azetidin-3-yl)-3-(methoxymethyl)piperazin-1-yl)cyclohexyl)-6-(2-hydroxypropan-2-yl)-2H-indazol-5-yl)pyrrolo[1,2-b]pyridazine-7-carboxamide] | 91% | 1.1 nM | 39 nM | 95% |  | 
CC(C)(O)c1cc2nn([C@H]3CC[C@H](C4CCN(CC5CN(c6cc(F)c([C@H]7CCC(=O)NC7=O)c(F)c6)C5)CC4)CC3)cc2cc1NC(=O)c1ccc2cc(C#N)cnn12 [Example 390, 3-cyano-N-(2-((1r,4r)-4-(1-((1-(4-((R)-2,6-dioxopiperidin-3-yl)-3,5-difluorophenyl)azetidin-3-yl)methyl)piperidin-4-yl)cyclohexyl)-6-(2-hydroxypropan-2-yl)-2H-indazol-5-yl)pyrrolo[1,2-b]pyridazine-7-carboxamide] | 99% | 2 nM | 24 nM | 99% |  | 

Molecules with a lower DC50 (IRAK4 [1]), results first:

Dmax (IRAK4 [1]; [3]) | DC50 (IRAK4 [1]) | DC50 (IRAK4 [2]) | Dmax (IRAK4 [2]) | IRAK4 in Karpas-299 (24 h) Dmax (%) (IRAK4 [1]; [3]) | IRAK4 degradtion with human serum assay Dmax (%) (IRAK4 [2]) | Compound
 | 0.8 nM | 19 nM |  | 96% | 98% | CC(C)(O)c1cc2nn([C@H]3C[C@H](N4CCN(C(=O)[C@@H]5CCN(c6cc(F)c([C@H]7CCC(=O)NC7=O)c(F)c6)C5)CC4)C3)cc2cc1NC(=O)c1ccc2cc(C#N)cnn12 [Example 329, 3-cyano-N-(2-((1R,3r)-3-(4-((R)-1-(4-((R)-2,6-dioxopiperidin-3-yl)-3,5-difluorophenyl)pyrrolidine-3-carbonyl)piperazin-1-yl)cyclobutyl)-6-(2-hydroxypropan-2-yl)-2H-indazol-5-yl)pyrrolo[1,2-b]pyridazine-7-carboxamide]
98% | 0.24 nM | 2.7 nM | 100% |  |  | COc1cc2nn([C@H]3CC[C@H](N4CCN(C(=O)C5CN(c6cc(F)c([C@H]7CCC(=O)NC7=O)c(F)c6)C5)CC4)CC3)cc2cc1C(=O)Nc1cnn2cccnc12 [Example 344, 2-((1r,4r)-4-(4-(1-(4-((R)-2,6-dioxopiperidin-3-yl)-3,5-difluorophenyl)azetidine-3-carbonyl)piperazin-1-yl)cyclohexyl)-6-methoxy-N-(pyrazolo[1,5-a]pyrimidin-3-yl)-2H-indazole-5-carboxamide]
97% | 0.5 nM | 3.8 nM | 97% |  |  | CC(C)(O)c1cc2nn([C@H]3CC[C@H](N4CCN(CC5CN(c6cc(F)c([C@H]7CCC(=O)NC7=O)c(F)c6)C5)C[C@@H]4CO)CC3)cc2cc1NC(=O)c1ccc2cc(C#N)cnn12 [Example 400, 3-cyano-N-(2-((1R,4r)-4-((R)-4-((1-(4-((R)-2,6-dioxopiperidin-3-yl)-3,5-difluorophenyl)azetidin-3-yl)methyl)-2-(hydroxymethyl)piperazin-1-yl)cyclohexyl)-6-(2-hydroxypropan-2-yl)-2H-indazol-5-yl)pyrrolo[1,2-b]pyridazine-7-carboxamide]
100% | 0.2 nM | 13 nM | 92% |  |  | COc1cc2nn([C@H]3CC[C@H](N4CCN(C(=O)C5CN(c6cc(F)c([C@H]7CCC(=O)NC7=O)c(F)c6)C5)CC4)CC3)cc2cc1NC(=O)c1ccc2cc(C#N)cnn12 [Example 336, 3-cyano-N-(2-((1r,4r)-4-(4-(1-(4-((R)-2,6-dioxopiperidin-3-yl)-3,5-difluorophenyl)azetidine-3-carbonyl)piperazin-1-yl)cyclohexyl)-6-methoxy-2H-indazol-5-yl)pyrrolo[1,2-b]pyridazine-7-carboxamide]
97% | 0.6 nM | 48 nM | 97% |  |  | CC(C)(O)c1cc2nn([C@H]3CC[C@H](N4CCN(C(=O)C5CCN(c6cc(F)c([C@H]7CCC(=O)NC7=O)c(F)c6)CC5)CC4)CC3)cc2cc1NC(=O)c1ccc2cc(C#N)cnn12 [Example 291]
